Results reported in patent publication US20250129430A1, “HIGH ATP-AFFINITY PROTEIN AS THERAPEUTIC TARGET FOR INTRACTABLE CANCER MOLECULAR SUBTYPES AND INHIBITOR THEREOF” (VeraVerse Co., Ltd., priority 2021, published 2025).

How the values were obtained:
Assay in all cases: Cell viability drug screen, 12-point dose-response AUC
Format in all cases: cell-based, human
Hs746T = conditions: 72 hours; for Average Area Under the Viability Curve (AUC), AUC norm value: Hs746T cells (SEM subtype)
In short: (§1)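 Viability: luminescence (Glo kit, 15 min RT), normalized to 0.5% DMSO vehicle. Dosing: half-log, 12 concentrations, 72 h. Cells: 5×10^3/well, treated 24 h after plating. Value: trapezoidal AUC, mean of repeats.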

MKN74 = MKN74 cells, 72 hours
In short: as §1

SNU16 = SNU16 cells, 72 hours
In short: as §1

MKN1 = MKN1 cells, 72 hours
In short: as §1

SNU216 = conditions: 72 hours; for Average Area Under the Viability Curve (AUC), AUC norm value: SNU216 cells (non-SEM subtype)
In short: as §1

NCC59 = NCC59 cells, 72 hours
In short: as §1

YCC2 = YCC2 cells, 72 hours
In short: as §1

SNU601 = SNU601 cells, 72 hours
In short: as §1

SNU620 = SNU620 cells, 72 hours
In short: as §1

AGS = conditions: 72 hours; for Average Area Under the Viability Curve (AUC), AUC norm value: AGS cells (non-SEM subtype)
In short: as §1

SNU1967 = SNU1967 cells, 72 hours
In short: as §1

NCC19 = NCC19 cells, 72 hours
In short: as §1

NCC24 = NCC24 cells, 72 hours
In short: as §1

SNU484 = conditions: 72 hours; for Average Area Under the Viability Curve (AUC), AUC norm value: SNU484 cells (SEM subtype)
In short: as §1

MKN45 = conditions: 72 hours; for Average Area Under the Viability Curve (AUC), AUC norm value: MKN45 cells (non-SEM subtype)
In short: as §1

YCC3 = YCC3 cells, 72 hours
In short: as §1

MKN28 = MKN28 cells, 72 hours
In short: as §1

SNU719 = SNU719 cells, 72 hours
In short: as §1

NCC20 = NCC20 cells, 72 hours
In short: as §1

KATO3 = KATO3 cells, 72 hours
In short: as §1

NCI_N87 = NCI_N87 cells, 72 hours
In short: as §1

SNU668 = conditions: 72 hours; for Average Area Under the Viability Curve (AUC), AUC norm value: SNU668 cells (SEM subtype)
In short: as §1

YCC11 = conditions: 72 hours; for Average Area Under the Viability Curve (AUC), AUC norm value: YCC11 cells (SEM subtype)
In short: as §1

SNU638 = SNU638 cells, 72 hours
In short: as §1

OCUM1 = OCUM1 cells, 72 hours
In short: as §1

SNU1750 = conditions: 72 hours; for Average Area Under the Viability Curve (AUC), AUC norm value: SNU1750 cells (SEM subtype)
In short: as §1

SK4 = conditions: 72 hours; for Average Area Under the Viability Curve (AUC), AUC norm value: SK4 cells (SEM subtype)
In short: as §1

SNU1 = SNU1 cells, 72 hours
In short: as §1

FU97 = test system: FU97; design: Average Area Under the Viability Curve (AUC), AUC norm value: scale not given here; conditions: FU97 cells, 72 hours
In short: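 Trapezoidal AUC of a 12-point, DMSO-normalized dose-response curve. Luminescent viability was measured after 72 h of exposure at 37° C to half-log serial dilutions (0.5% DMSO control), dosed 24 h after plating FU97 cells at 5×10^3 per well.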

## CC(C)[C@]12O[C@H]1[C@@H]1O[C@]13[C@]1(O[C@H]1C[C@H]1C4=C(CC[C@@]13C)C(=O)OC4)[C@@H]2O [Triptolide]
Hs746T; Hs746T cells, 12-point dose-response
  area under the viability curve (AUC), normalized: 0.17
MKN74; 12-point dose-response
  area under the viability curve (AUC), normalized: −0.8231
SNU16; 12-point dose-response
  area under the viability curve (AUC), normalized: 1.9544
MKN1; 12-point dose-response
  area under the viability curve (AUC), normalized: 0.6772
SNU216; SNU216 cells, 12-point dose-response
  area under the viability curve (AUC), normalized: 1.18
NCC59; 12-point dose-response
  area under the viability curve (AUC), normalized: 0.356
YCC2; 12-point dose-response
  area under the viability curve (AUC), normalized: 0.6309
SNU601; 12-point dose-response
  area under the viability curve (AUC), normalized: 0.3854
SNU620; 12-point dose-response
  area under the viability curve (AUC), normalized: −0.986
AGS; AGS cells, 12-point dose-response
  area under the viability curve (AUC), normalized: −1.267
SNU1967; 12-point dose-response
  area under the viability curve (AUC), normalized: −0.4902
NCC19; 12-point dose-response
  area under the viability curve (AUC), normalized: −1.507
NCC24; 12-point dose-response
  area under the viability curve (AUC), normalized: −1.656
SNU484; SNU484 cells, 12-point dose-response
  area under the viability curve (AUC), normalized: −1.234
MKN45; MKN45 cells, 12-point dose-response
  area under the viability curve (AUC), normalized: 1.157
YCC3; 12-point dose-response
  area under the viability curve (AUC), normalized: 2.62
MKN28; 12-point dose-response
  area under the viability curve (AUC), normalized: −0.03132
SNU719; 12-point dose-response
  area under the viability curve (AUC), normalized: 4.573
NCC20; 12-point dose-response
  area under the viability curve (AUC), normalized: 0
KATO3; 12-point dose-response
  area under the viability curve (AUC), normalized: 5.715
NCI_N87; 12-point dose-response
  area under the viability curve (AUC), normalized: −0.7868
SNU668; SNU668 cells, 12-point dose-response
  area under the viability curve (AUC), normalized: −1.284
YCC11; YCC11 cells, 12-point dose-response
  area under the viability curve (AUC), normalized: 0.4144
SNU638; 12-point dose-response
  area under the viability curve (AUC), normalized: 0.828
OCUM1; 12-point dose-response
  area under the viability curve (AUC), normalized: 1.992
SNU1750; SNU1750 cells, 12-point dose-response
  area under the viability curve (AUC), normalized: −0.4213
SK4; SK4 cells, 12-point dose-response
  area under the viability curve (AUC), normalized: −1.232
SNU1; 12-point dose-response
  area under the viability curve (AUC), normalized: −0.1207
FU97; 12-point dose-response
  area under the viability curve (AUC), normalized: −0.6238

## NC(=O)Nc1cc(-c2cccc(F)c2)sc1C(=O)N[C@H]1CCCNC1 [AZD7762]
Hs746T
  Average Area Under the Viability Curve (AUC), AUC norm value: 1.376
MKN74
  Average Area Under the Viability Curve (AUC), AUC norm value: −0.4773
SNU16
  Average Area Under the Viability Curve (AUC), AUC norm value: −1.119
MKN1
  Average Area Under the Viability Curve (AUC), AUC norm value: −0.01906
SNU216
  Average Area Under the Viability Curve (AUC), AUC norm value: 0.7004
NCC59
  Average Area Under the Viability Curve (AUC), AUC norm value: 2.107
YCC2
  Average Area Under the Viability Curve (AUC), AUC norm value: 0.451
SNU601
  Average Area Under the Viability Curve (AUC), AUC norm value: −0.957
SNU620
  Average Area Under the Viability Curve (AUC), AUC norm value: 0.2258
AGS
  Average Area Under the Viability Curve (AUC), AUC norm value: −0.4403
SNU1967
  Average Area Under the Viability Curve (AUC), AUC norm value: −0.3626
NCC19
  Average Area Under the Viability Curve (AUC), AUC norm value: 2.796
NCC24
  Average Area Under the Viability Curve (AUC), AUC norm value: 1.107
SNU484
  Average Area Under the Viability Curve (AUC), AUC norm value: 0
MKN45
  Average Area Under the Viability Curve (AUC), AUC norm value: −0.3384
YCC3
  Average Area Under the Viability Curve (AUC), AUC norm value: 1.638
MKN28
  Average Area Under the Viability Curve (AUC), AUC norm value: −0.3131
SNU719
  Average Area Under the Viability Curve (AUC), AUC norm value: 3.771
NCC20
  Average Area Under the Viability Curve (AUC), AUC norm value: −0.4167
KATO3
  Average Area Under the Viability Curve (AUC), AUC norm value: 2.891
NCI_N87
  Average Area Under the Viability Curve (AUC), AUC norm value: 0.8405
SNU668
  Average Area Under the Viability Curve (AUC), AUC norm value: 1.537
YCC11
  Average Area Under the Viability Curve (AUC), AUC norm value: −0.9757
SNU638
  Average Area Under the Viability Curve (AUC), AUC norm value: 1.404
OCUM1
  Average Area Under the Viability Curve (AUC), AUC norm value: 0.511
SNU1750
  Average Area Under the Viability Curve (AUC), AUC norm value: −0.9031
SK4
  Average Area Under the Viability Curve (AUC), AUC norm value: −0.9696
SNU1
  Average Area Under the Viability Curve (AUC), AUC norm value: −0.2026
FU97
  Average Area Under the Viability Curve (AUC), AUC norm value: −0.7616

## CO[C@@H](C(=O)N1Cc2n[nH]c(NC(=O)c3ccc(N4CCN(C)CC4)cc3)c2C1)c1ccccc1 [Danusertib (PHA-739358), Danusertib]
Hs746T
  Average Area Under the Viability Curve (AUC), AUC norm value: 1.565
MKN74
  Average Area Under the Viability Curve (AUC), AUC norm value: 0.1321
SNU16
  Average Area Under the Viability Curve (AUC), AUC norm value: −3.76
MKN1
  Average Area Under the Viability Curve (AUC), AUC norm value: −0.8271
SNU216
  Average Area Under the Viability Curve (AUC), AUC norm value: 0
NCC59
  Average Area Under the Viability Curve (AUC), AUC norm value: 1.632
YCC2
  Average Area Under the Viability Curve (AUC), AUC norm value: −0.9901
SNU601
  Average Area Under the Viability Curve (AUC), AUC norm value: 2.877
SNU620
  Average Area Under the Viability Curve (AUC), AUC norm value: −2.616
AGS
  Average Area Under the Viability Curve (AUC), AUC norm value: −1.034
SNU1967
  Average Area Under the Viability Curve (AUC), AUC norm value: 0.03541
NCC19
  Average Area Under the Viability Curve (AUC), AUC norm value: 1.885
NCC24
  Average Area Under the Viability Curve (AUC), AUC norm value: 0.9879
SNU484
  Average Area Under the Viability Curve (AUC), AUC norm value: −1.537
MKN45
  Average Area Under the Viability Curve (AUC), AUC norm value: 2.103
YCC3
  Average Area Under the Viability Curve (AUC), AUC norm value: 0.7949
MKN28
  Average Area Under the Viability Curve (AUC), AUC norm value: 1.245
SNU719
  Average Area Under the Viability Curve (AUC), AUC norm value: 3.935
NCC20
  Average Area Under the Viability Curve (AUC), AUC norm value: −4.082
KATO3
  Average Area Under the Viability Curve (AUC), AUC norm value: −0.3046
NCI_N87
  Average Area Under the Viability Curve (AUC), AUC norm value: 2.122
SNU668
  Average Area Under the Viability Curve (AUC), AUC norm value: 1.049
YCC11
  Average Area Under the Viability Curve (AUC), AUC norm value: −1.357
SNU638
  Average Area Under the Viability Curve (AUC), AUC norm value: −0.2145
OCUM1
  Average Area Under the Viability Curve (AUC), AUC norm value: 0.8742
SNU1750
  Average Area Under the Viability Curve (AUC), AUC norm value: −2.3091
SK4
  Average Area Under the Viability Curve (AUC), AUC norm value: −0.6677
SNU1
  Average Area Under the Viability Curve (AUC), AUC norm value: −2.274
FU97
  Average Area Under the Viability Curve (AUC), AUC norm value: −2.488
